Experiment [1] deals with production of CD69 by B lymphocytes in human whole blood. In words: CD69 Whole Blood Assay (Example 907). The experiment is classed as cell-based. To be noted: Lymphocyte; human whole blood activated with goat F(ab')2 anti-human IgM, 20 hours; percent CD69 positive cells that are also CD20 positive. The text has this:
A CD69 Whole Blood Assay can be conducted on Formula I compounds to determine the ability of compounds to inhibit the production of CD69 by B lymphocytes in human whole blood activated by crosslinking surface IgM with goat F(ab')2 anti-human IgM (Example 907).
Human blood is obtained from healthy volunteers, with the following restrictions: 1 week drug-free, non-smokers. Blood (approximately 20 mls to test 8 compounds) is collected by venipuncture into Vacutainer® (Becton, Dickinson and Co.) tubes with sodium heparin.
Solutions of Formula I compounds at 10 mM in DMSO are diluted 1:10 in 100% DMSO, then are diluted by three-fold serial dilutions in 100% DMSO for a ten point dose-response curve. The compounds are further diluted 1:10 in PBS and then an aliquot of 5.5 µl of each compound is added in duplicate to a 2 ml 96-well plate; 5.5 µl of 10% DMSO in PBS is added as control and no-stimulus wells. Human whole blood - HWB (100 µl) is added to each well. After mixing the plates are incubated at 37 °C, 5% CO2, 100% humidity for 30 minutes. Goat F(ab')2 anti-human IgM (10 µl of a 500 µg/ml solution, 50 µg/ml final) is added to each well (except the no-stimulus wells) with mixing and the plates are incubated for an additional 20 hours. At the end of the 20 hour incubation, samples are incubated with fluorescent labeled antibodies for 30 minutes, at 37 °C, 5% CO2, 100% humidity. Include induced control, unstained and single stains for compensation adjustments and initial voltage settings. Samples are then lysed with PharM Lyse™ (BD Biosciences Pharmingen) according to the manufacturer's instructions. Samples are then transferred to a 96 well plate suitable to be run on the BD Biosciences HTS 96 well system on the LSRII machine. Data acquired and Mean Fluorescence Intensity values were obtained using BD Biosciences DIVA Software. Results are initially analyzed by FACS analysis software (Flow Jo). […] The IC50 values are calculated by Prism version 5, using a nonlinear regression curve fit.

The next experiment relates to CD86 surface expression. In words: CD86 Inhibition Assay (Example 905), inhibition of B cell activity in total mouse splenocytes. To be noted: Splenocyte; total mouse splenocytes stimulated with 15 µg/ml IgM for 24 hr; gated on CD19+/7AAD- population. In kind it is cell-based, Balb/c mice. The protocol: A CD86 Inhibition assay can be conducted on Formula I compounds for the inhibition of B cell activity using total mouse splenocytes purified from spleens of 8-16 week old Balb/c mice (Example 905).
A generalized procedure for a standard assay for the inhibition of B cell activity that can be used to test Formula I compounds is as follows. Total mouse splenocytes are purified from spleens of 8-16 week old Balb/c mice by red blood cell lysis (BD Pharmingen #555899). Testing compounds are diluted to 0.5% DMSO and incubated with 1.25 x 10^6 splenocytes in a final volume of 200 µl in flat clear bottom plates (Falcon 353072) for 60 min at 37°C. Cells are then stimulated with the addition of 15 µg/ml IgM (Jackson ImmunoResearch 115-006-020), and incubated for 24 hr at 37°C, 5% CO2. Following the 24 hr incubation, cells are transferred to conical bottom clear 96-well plates and pelleted by centrifugation at 1200 x g x 5 min. Cells are preblocked by CD16/CD32 (BD Pharmingen #553142), followed by triple staining with CD19-FITC (BD Pharmingen #553785), CD86-PE (BD Pharmingen #553692), and 7AAD (BD Pharmingen #51-68981E). Cells are sorted on a BD FACSCalibur and gated on the CD19^+/7AAD^- population. The levels of CD86 surface expression on the gated population is measured versus test compound concentration. Exemplary results are in Table 3.

Experiment [2] addresses T1, full length human wildtype Btk (Homo sapiens, UniProt Q06187).
T1 construct: V5 (C); 6xHis (C); made in house; host or cells: Sf9 insect cells (baculovirus, pFastBac)
In words: Biochemical Btk Kinase Assay (Example 901). To be noted: time-resolved fluorescence, final ATP concentration 40 µM; alternatively Lanthascreen assay, ATP 25 uM. How it is done:
Formula I compounds were tested by a standard biochemical Btk Kinase Assay (Example 901). A generalized procedure for a standard biochemical Btk Kinase Assay that can be used to test Formula I compounds is as follows. […] Btk enzyme is prepared as follows: full length human wildtype Btk (accession number NM-000061) with a C-terminal V5 and 6x His tag was subcloned into pFastBac vector for making baculovirus carrying this epitope-tagged Btk. Generation of baculovirus is done based on Invitrogen's instructions detailed in its published protocol "Bac-to-Bac Baculovirus Expression Systems" (Cat. Nos. 10359-016 and 10608-016). Passage 3 virus is used to infect Sf9 cells to overexpress the recombinant Btk protein. The Btk protein is then purified to homogeneity using Ni-NTA column. The purity of the final protein preparation is greater than 95% based on the sensitive Sypro-Ruby staining. A solution of 200 µM ATP is prepared in water and adjusted to pH7.4 with 1N NaOH. A quantity of 1.25 µL of compounds in 5%DMSO is transferred to a 96-well ½ area Costar polystyrene plate. Compounds are tested singly and with an 11-point dose-responsive curve (starting concentration is 10 µM; 1:2 dilution). A quantity of 18.75 µL of master mix minus enzyme (as a negative control) and master mix plus enzyme is transferred to appropriate wells in 96-well ½ area costar polystyrene plate. 5 µL of 200 µM ATP is added to that mixture in the 96-well ½ area Costar polystyrene plate for final ATP concentration of 40 µM. The reaction is allowed to incubate for 1 hour at room temperature. The reaction is stopped with Perkin Elmer 1X detection buffer containing 30 mM EDTA, 20 nM SA-APC, and 1 nM PT66 Ab. The plate is read using time-resolved fluorescence with a Perkin Elmer Envision using excitation filter 330 nm, emission filter 665 nm, and 2nd emission filter 615 nm. IC50 values are subsequently calculated. Alternatively, the Lanthascreen assay can be used to evaluate Btk activity through quantification of its phosphorylated peptide product. The FRET (Fluorescence Resonance Energy Transfer) that occurs between the fluorescein on the peptide product and the terbium on the detection antibody decreases with the addition of inhibitors of Btk that reduce the phosphorylation of the peptide. […] After incubation for 60 minutes at room temperature, the reaction is stopped by the addition of a final concentration of 2 nM Tb-PY20 detection antibody in 60 mM EDTA for 30 minutes at room temperature. Detection is determined on a Perkin Elmer Envision with 340 nm excitation and emission at 495 nm and 520 nm. Exemplary Btk inhibition IC50 values are in Tables and 2.

T1 sequence (Q06187 whole entry): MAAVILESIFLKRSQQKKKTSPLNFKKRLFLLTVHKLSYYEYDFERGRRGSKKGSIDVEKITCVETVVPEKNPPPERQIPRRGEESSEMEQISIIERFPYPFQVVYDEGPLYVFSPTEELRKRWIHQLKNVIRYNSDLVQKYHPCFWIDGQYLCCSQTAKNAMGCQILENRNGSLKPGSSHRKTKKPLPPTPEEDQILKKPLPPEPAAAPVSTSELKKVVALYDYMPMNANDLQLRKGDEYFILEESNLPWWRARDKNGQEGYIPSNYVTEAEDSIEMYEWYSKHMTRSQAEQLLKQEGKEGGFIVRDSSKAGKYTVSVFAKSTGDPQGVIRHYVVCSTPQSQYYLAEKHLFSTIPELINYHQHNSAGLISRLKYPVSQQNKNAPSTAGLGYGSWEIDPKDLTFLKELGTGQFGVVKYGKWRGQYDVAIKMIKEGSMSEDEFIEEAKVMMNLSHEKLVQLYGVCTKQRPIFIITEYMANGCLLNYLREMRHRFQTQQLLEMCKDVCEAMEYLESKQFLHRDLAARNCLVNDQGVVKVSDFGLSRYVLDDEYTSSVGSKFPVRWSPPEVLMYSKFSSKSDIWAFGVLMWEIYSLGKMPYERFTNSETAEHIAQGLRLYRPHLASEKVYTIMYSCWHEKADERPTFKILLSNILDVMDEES

Regarding `Cn1nc(-c2cccc(N3Cc4cc(C(C)(C)C)sc4C3=O)c2CO)cc(Nc2cc3n(n2)CCN(C2CC2)C3)c1=O` [Compound 133, 6-(3-{2-tert-butyl-6-oxo-4H,5H,6H-thieno[2,3-c]pyrrol-5-yl}-2-(hydroxymethyl)phenyl)-4-({5-cyclopropyl4H,5H,6H,7H-pyrazolo[1,5-a]pyrazin-2-yl}amino)-2-methyl-2,3-dihydropyridazin-3-one], the IC50 in experiment [1] turned out to be 0.147 µM.
`Cc1c(-c2cc(Nc3cc4n(n3)CCN(C)C4)c(=O)[nH]n2)cc(F)cc1N1Cc2cc(C(C)(C)C)sc2C1=O` [Compound 122, 6-(3-{2-tert-butyl-6-oxo-4H,5H,6H-thieno[2,3-c]pyrrol-5-yl}-5-fluoro-2-methylphenyl)-4-({5-methyl-4H,5H,6H,7H-pyrazolo[1,5-a]pyrazin-2-yl}amino)-2,3-dihydropyridazin-3-one] displayed an IC50 in experiment [1] of 0.101 µM. Further, the EC50 in the experiment with CD86 surface expression was found to be 0.211 µM.
With `CC(=O)N1CCn2nc(Nc3cc(-c4cccc(N5Cc6cc(C(C)(C)C)sc6C5=O)c4CCO)nn(C)c3=O)cc2C1` [Compound 128, 6-(3-{2-tert-butyl-6-oxo-4H,5H,6H-thieno[2,3-c]pyrrol-5-yl}-2-(2-hydroxyethyl)phenyl)-4-({5-acetyl-4H,5H,6H,7H-pyrazolo[1,5-a]pyrazin-2-yl}amino)-2-methyl-2,3-dihydropyridazin-3-one], the IC50 in experiment [1] amounted to 0.568 µM.
As for `Cn1nc(-c2ccc(F)c(N3Cc4cc(C(C)(C)C)sc4C3=O)c2CO)cc(Nc2cc(C3CC3)[nH]n2)c1=O` [Compound 142, 6-(3-{2-tert-butyl-6-oxo-4H,5H,6H-thieno[2,3-c]pyrrol-5-yl} -4-fluoro-2-(hydroxymethyl)phenyl)-4-[(5-cyclopropyl-1H-pyrazol-3-yl)amino]-2-methyl-2,3-dihydropyridazin-3-one], in experiment [1], the half-maximal inhibitory concentration (IC50) came out at 0.41 µM. In the experiment with CD86 surface expression, this compound had an EC50 of 1.2 µM.
Take `CC(C)(C)c1cc2c(s1)C(=O)N(c1nc(-c3cc(Nc4cc(C5CC5)[nH]n4)c(=O)[nH]n3)ccc1F)C2` [Compound 116, 6-(6-{2-tert-butyl-6-oxo-4H,5H,6H-thieno[2,3-c]pyrrol-5-yl}-5-fluoropyridin-2-yl)-4-[(5-cyclopropyl-1H-pyrazol-3-yl)amino]-2,3-dihydropyridazin-3-one]: the IC50 was determined as 0.035 µM in experiment [2] and 2.5 µM in experiment [1].
As to `Cc1c(-c2cc(Nc3cc(C4CC4)[nH]n3)c(=O)[nH]n2)cccc1N1Cc2cc(C(C)(C)C)sc2C1=O` [Compound 113, 6-(3-{2-tert-butyl-6-oxo-4H,5H,6H-thieno[2,3-c]pyrrol-5-yl}-2-methylphenyl)-4-[(5-cyclopropyl-1H-pyrazol-3-yl)amino]-2,3-dihydropyridazin-3-one], the figures for the IC50 in experiment [2] and in experiment [1] were 0.004 µM and 0.213 µM, respectively.

Usually IC50 stands for the concentration that gives 50% inhibition. A higher IC50 goes with weaker potency. Usually EC50 stands for the concentration giving half of the maximal effect. Read a low EC50 as greater potency.
